{"source": "patent US11154571B2", "about": "“Exosomes sourced from granulocytic myeloid-derived suppressor cells and application thereof” (Jiangsu University, priority 2015, dated 2021)", "target": "T1, Arg-1 (Mus musculus, UniProt Q61176)", "T1 construct": "endogenous in cells; host or cells: primary G-MDSCs sorted from the spleen of tumor-bearing or CIA mice, and exosomes from their culture supernatant", "T1 sequence (Q61176 1-323)": "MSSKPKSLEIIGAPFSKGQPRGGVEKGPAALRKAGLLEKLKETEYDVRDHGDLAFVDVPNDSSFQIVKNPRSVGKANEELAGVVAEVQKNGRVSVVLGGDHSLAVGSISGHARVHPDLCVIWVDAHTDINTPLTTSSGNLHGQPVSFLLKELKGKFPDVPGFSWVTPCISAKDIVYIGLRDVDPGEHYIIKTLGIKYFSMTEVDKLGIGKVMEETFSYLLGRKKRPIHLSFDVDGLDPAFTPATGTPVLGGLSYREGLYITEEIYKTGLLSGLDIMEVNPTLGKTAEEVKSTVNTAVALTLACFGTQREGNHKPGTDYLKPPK", "assay": "Arg-1 activity detection (arginase assay kit)", "format": "biochemical", "settings": "nor-NOHA (5 mg/ml in DMSO) added to G-MDSC culture; FIG. 7A", "experimental": "(1) The activity detection of Arg-1 in G-MDSC exo and inhibition effect of nor-NOHA on the Arg-1 activity in G-MDSC exo: The sorted G-MDSCs are same to example 1. Inoculate 2×10^6 G-MDSCs per well in 24 well plate, and add 1 ml of RPMI-1640 medium and culture at 37° C., 5% CO2 for 16 h. The culture supernatant is collected and used for preparing G-MDSC exo, then the G-MDSC exo was lysed (the same with example 2), and the G-MDSC exo activity was measured with the arginase assay kit from eBioscience company. 5 mg of nor-NOHA powder was dissolved with 1 ml of DMSO, 5 mg/ml nor-NOHA solution is prepared. Experimental groups were treated as follows:\nG-MDSC group: G-MDSCs were cultured, and cells are collected.\n(G-MDSC+DMSO) group: G-MDSC is cultured after adding […] of DMSO, and cells were collected.\n(G-MDSC+NN) group: G-MDSC is cultured after adding […] of nor-NOHA, and cells were collected.\nG-MDSC exo group: G-MDSC is cultured, culture supernatant was collected.\n(G-MDSC+DMSO) exo group: G-MDSC is cultured after adding […] of DMSO, culture supernatant was collected.\n(G-MDSC+NN) exo group: G-MDSC is cultured after adding […] of nor-NOHA, culture supernatant was collected."}
{"smiles": "N=C(NO)NCC[C@H](N)C(=O)O", "note": "[NN, nor-NOHA]", "values": [{"measurement": "inhibition of Arg-1 activity in G-MDSC exo", "result": "could be inhibited"}]}
